Data set [1] has as its target T1, AhR (Homo sapiens, UniProt P35869).
T1 sequence (P35869 11-848): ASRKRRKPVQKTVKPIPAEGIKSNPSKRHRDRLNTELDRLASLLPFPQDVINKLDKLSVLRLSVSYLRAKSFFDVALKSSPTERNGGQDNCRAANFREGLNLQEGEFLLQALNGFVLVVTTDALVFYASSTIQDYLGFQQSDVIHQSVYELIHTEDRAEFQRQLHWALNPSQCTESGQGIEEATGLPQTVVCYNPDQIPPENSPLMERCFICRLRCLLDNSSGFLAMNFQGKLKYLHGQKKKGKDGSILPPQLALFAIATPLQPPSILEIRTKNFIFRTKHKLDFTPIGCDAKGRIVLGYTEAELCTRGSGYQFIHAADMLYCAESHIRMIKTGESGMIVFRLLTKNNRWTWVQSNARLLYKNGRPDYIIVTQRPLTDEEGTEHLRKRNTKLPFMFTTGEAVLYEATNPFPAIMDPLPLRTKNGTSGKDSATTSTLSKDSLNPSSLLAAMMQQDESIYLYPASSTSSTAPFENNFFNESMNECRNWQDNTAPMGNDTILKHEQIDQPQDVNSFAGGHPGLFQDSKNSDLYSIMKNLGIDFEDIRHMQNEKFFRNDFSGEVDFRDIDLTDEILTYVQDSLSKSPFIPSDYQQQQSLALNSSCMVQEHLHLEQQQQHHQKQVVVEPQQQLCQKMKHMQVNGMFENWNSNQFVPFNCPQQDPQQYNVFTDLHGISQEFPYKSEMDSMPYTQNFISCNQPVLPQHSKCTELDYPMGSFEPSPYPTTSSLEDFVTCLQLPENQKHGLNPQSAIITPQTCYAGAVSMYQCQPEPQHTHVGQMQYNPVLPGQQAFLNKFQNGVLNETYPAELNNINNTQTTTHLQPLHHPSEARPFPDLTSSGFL
As to the kind of experiment: cell-based.

The target in data set [2] is T1, AhR.
Another data set relates to Cyp1b1. As to the kind of experiment: HaCaT cells, CYP1B1 mRNA by Reverse Transcriptase Real-Time PCR. Format: cell-based, human. The following applies: 1 μM, 24h. (In general: In qPCR the cycle at which signal appears reflects the starting amount.)
Data set [3] concerns Cyp1a1. As to the kind of experiment: HaCaT cells, CYP1A1 mRNA by Reverse Transcriptase Real-Time PCR. The following applies: for induction of CYP1A1 mRNA: 100 nM; for Cyp1a1 induction, time dependence: 24h compared to 3 and 6h.
Data set [4] deals with Cyp1a1. The settings on record: human.
[5] abbreviates: 6 hours of incubation, HG2L7.5c1 cells.

Like-named read-outs stand apart in the source and are kept apart here.

Turning to `Clc1cc2c(cc1Cl)Oc1cc(Cl)c(Cl)cc1O2` [TCDD, 2,3,7,8-tetrachlorodibenzo-p-dioxin, reference compound], at AhR [1], the EC50 (commonly the concentration giving half of the maximal effect) is 0.523 nM.

Regarding `O=C1c2ccccc2-n2c1nc1ccccc1c2=O` [tryptanthrin], the “fold less potent than TCDD” value at AhR [2] worked out at 200 fold. Besides, the response on AhR [1] was half-maximal at 107 nM (EC50).

For the compound `O=Cc1c(Cc2c[nH]c3ccccc23)[nH]c2ccccc12` [malassezin], the “fold less potent than TCDD” value at AhR [2] (setting [5]) came out at 20 fold.

As for `O=Cc1c2[nH]c3ccccc3c2cc2[nH]c3ccccc3c12` [FICZ, 6-formylindolo[3,2-b]carbazole], the “Cyp1b1 induction compared with ICZ or indirubin” value in the data set on Cyp1b1 is “significantly more potent”. Besides, the “induction of CYP1A1 mRNA” value in the data set with Cyp1a1 [3] (24h) is given as “Statistically significant induction”. In the data set with Cyp1a1 [3] (1 μM, 24h), the “Cyp1a1 induction compared with ICZ or indirubin” value was “significantly more potent”. For the same compound, the “Cyp1a1 induction, time dependence” value with Cyp1a1 [3] was “higher at 24h”.

Take indolo[3,2-b]carbazole [ICZ]: at AhR [2] (setting [5]), the “potency relative to the prototypical AhR agonist TCDD” value was “equipotent”. The “induction of CYP1A1 mRNA” value in the data set on Cyp1a1 [3] (24h) is listed as “Statistically significant induction”. Moreover, in the data set with Cyp1a1 [3], the “Cyp1a1 induction, time dependence” value was “higher at 24h”.

As for `O=C1Nc2ccccc2/C1=C1/Nc2ccccc2C1=O` [indirubin], the “Cyp1a1 induction, time dependence” value in the data set with Cyp1a1 [4] is “higher at 24h”.

Source of the values: paper PMC3714356 (The Journal of investigative dermatology, 2013).
